Data set [1] concerns anti-Gal antibodies in baboon serum. Briefly: competition ELISA, inhibition of xenoreactive antibody activity (IC50). It is filed as binding. The settings on record: for IC50 (FIG. 24): mass per volume of polymer, new pipette tip for each addition. Here is the method:
Principle of the assay: A competition ELISA was set up in such a way that Gal-molecules linked to human serum albumin and immobilized onto a microtiter plate and Gal-molecules linked to PEG compete for anti-Gal antibodies in baboon serum. The antibodies binding to the Gal-HSA were visualized using secondary antibodies to these antibodies with appropriate color development agents. The color in the case in which no Gal-PEG was added was defined as 100%. The IC50 was defined, for FIG. 3, as the concentration of Gal-PEG needed to inhibit 50% of the color development when trying to detect antibodies immobilized onto the Gal-HSA plate. For FIG. 24, the IC50 is defined in terms of mass per volume, e.g. mg/mL, of polymer.
Briefly, a 96 well microtiter was coated with 100 ul/well of a 30 ug/mL solution of αGal(1,3)Gal β 1-4 GlcNAc-human serum albumin (Gal-HSA) and incubated for 90 minutes at room temperature. After incubation with Gal-HSA, the plate was blocked with 1% HSA in PBS for 60 minutes.
While the microtiter plate was coated and blocked, samples were prepared as follows: Fifteen different dilution solutions were prepared for 1 plate. The first dilution solution was 1% HSA in PBS. […] were obtained by preparing a 2.5 mL stock solution of 10 mM αGal(1,3)Gal β 1-4 GlcNAc in 1% HSA/PBS and then serially diluting 1/10 three times. Dilution solutions 6-15 were obtained by preparing a 2.5 mL stock solution of the first concentration of modified PEG and then serially diluting 1/10 nine times in 1% HSA in PBS.
The plate was incubated for 90 minutes at 4° C. The plate was washed five times with PBS containing 0.5% Tween 20 and blot dried.
When assaying for xenoreactive IgM, 100 ul/well of Goat anti-human IgM-biotin antibody, diluted 1/4000 in 1% HSA/PBS, was added.
When assaying for xenoreactive IgG, 100 ul/well of Goat anti-human IgG-biotin antibody, diluted 1/4000 in 1% HSA/PBS, was added.
The biotinylated secondary antibody was incubated for one hour at 4° C. and afterwards the plate was washed five times with PBS containing 0.5% Tween 20 and blot dried. Hereafter, 100 ul/well streptavidin-alkaline phosphatase conjugate was added at a dilution of 1/4000 in 1% HSA/PBS and incubated for 30 minutes at room temperature. The microtiter plate was washed five times with PBS containing 0.5% Tween 20 and blot dried. 150 ul developer per well was added and the plate incubated for 30 minutes at room temperature. The color development was stopped by addition of 40 ul/well of 3 M NaOH. The plate was read in a plate reader at wavelength of 405 nm.
The IC50 data was calculated from the percent inhibition from the dilution of baboon control in 1% HSA/PBS which gave this highest point within the linear range.
% Inhibition=(([OD of BC in HSA]−[OD of BC in αGal(1,3)Gal β 1-4 GlcNAc or PEG-(αGal(1,3)Gal β 1-4 GlcNAc)x])/OD of BC in HSA)*100
Background: ELISA stands for enzyme-linked immunosorbent assay.

The next data set concerns total IgM and total IgG. Briefly: 810S-treated baboons: total IgM and total IgG by ELISA. It is filed as in vivo, baboon. The settings on record: all 3 animals, throughout the experiment. The method, then:
FIG. 28 is a graph of baboon 46-98 antibody response to 810S. Baboon 46-98 was treated with 810S (50 mg/kg) every 3 days for a total of 6 treatments. Serum was analyzed for IgM and IgG antibodies directed against the α-gal epitope (XIgM or XIgG), as well as for total IgM (TotIgM) or total IgG (TotIgG) by ELISA. The percent antibody remaining was calculated using baseline values as 100%.
(§1) A total of 6 baboons were used. Three baboons (designated 51-98, 48-98 and 47-98) underwent immunoapheresis (IP) using α-gal columns, with plasma from 3 blood volumes being passed over the columns every 3 days for a total of 6 treatments. Three other baboons (designated 46-98, 52-98, 50-98) received IV infusions of 810S at 50 mg/kg every 3 days for a total of 6 treatments. No immunosuppression or exposure to pig organs was included in the protocol.

Data set [2] has as its system α-gal antibody secreting cells (ASCs). Briefly: 810S vs immunoapheresis: peripheral α-gal antibody secreting cells (ELISPOT). It is filed as in vivo, baboon. The method, then:
FIG. 34 compares the IgG response between IP and TPC (810) treated baboons. Baboons were either treated with 810S (50 mg/kg) every 3 days for a total of 6 treatments, or underwent a total of 6 immunoapheresis treatments using α-gal columns every 3 days. Peripheral blood mononuclear cells were collected and analyzed for the number of cells secreting IgG antibodies directed against α-gal using an ELISPOT analysis. The fold-change in antibody secreting cells (ASCs) was calculated by normalizing to baseline values. Values are represented as the mean from 3 baboons per group.
FIG. 35 compares the IgM response between IP and TPC (810) treated baboons. Baboons were either treated with 810S (50 mg/kg) every 3 days for a total of 6 treatments, or underwent a total of 6 immunoapheresis treatments using α-gal columns every 3 days. Peripheral blood mononuclear cells were collected and analyzed for the number of cells secreting IgM antibodies directed against α-gal using an ELISPOT analysis. The fold-change in antibody secreting cells (ASCs) was calculated by normalizing to baseline values. Values are represented as the mean from 3 baboons per group.
as §1
(§2) In both groups, serum samples and blood were collected to measure α-gal antibody levels and ASCs during the treatment period and during a follow-up period out to approximately 150-180 days.

Data set [3] relates to IgM and IgG antibodies directed against the α-gal epitope (XNA). Briefly: 810S vs immunoapheresis: circulating α-gal antibodies (serum ELISA). It is filed as in vivo, baboon. The method, then: FIG. 26 is a graph of IgM XNA Levels: 810S vs IP-treated baboons. Baboons were either treated with 810S (50 mg/kg) every 3 days for a total of 6 treatments, or underwent a total of 6 immunoapheresis treatments using α-gal columns every 3 days. Serum from each baboon was analyzed by ELISA for IgM antibodies directed against the α-gal epitope. The percent IgM XNAs remaining were calculated using baseline values from each animal as 100%.
FIG. 27 is a graph of IgG XNA Levels: 810S vs IP-treated baboons. Baboons were either treated with 810S (50 mg/kg) every 3 days for a total of 6 treatments, or underwent a total of 6 immunoapheresis treatments using α-gal columns every 3 days. Serum from each baboon was analyzed by ELISA for IgG antibodies directed against the a -gal epitope. The percent […] XNAs remaining were calculated using baseline values from each animal as 100%.
as §1, §2

The nature of data set [4]: presence of 810S in baboon serum at day 30 (competition with human XNA binding to GAL-HSA). The settings on record: day 30 serum. It is filed as in vivo. The text has this: To investigate whether 810S was still in baboon serum by day 30, serum was mixed with human serum and analyzed by ELISA for competition with human XNA binding to GAL-HSA.
[5] abbreviates: 50 mg/kg IV every 3 days, after the final (6th) treatment.

Converted amounts (≈) assume the structure as drawn. Read-outs that look alike come from different tables or passages of the source.

For orientation: IC50 means the concentration that inhibits the measured activity by half. Read a low IC50 as higher potency.

With `CC(=O)N[C@H]1C(O)O[C@H](CO)[C@@H](O[C@@H]2O[C@H](CO)[C@H](O)[C@H](O[C@H]3O[C@H](CO)[C@H](O)[C@H](O)[C@H]3O)[C@H]2O)[C@@H]1O` (stereo partly drawn) [free sugar, αGal(1,3)Gal β 1-4 GlcNAc, reference compound], in data set [1], the IC50 is 50000 µg/mL (≈ 91.7 mM).

With “(αGal(1,3)Gal β 1-4 GlcNAc)8, PEG [Example 810E]”, the “IC50 (FIG. 24)” value in data set [1] was determined as 100 µg/mL.

Compound “(αGal(1,3)Gal β 1-4 GlcNAc)8-PEG [Example 410L]” yielded an IC50 in data set [1] of 500 µg/mL. The “times more effective per coupled sugar than the free sugar” value in data set [1] (from IC50 of 410L versus free sugar) stood at 100 times.

Take “(αGal(1,3)Gal β 1-4 GlcNAc)8-PEG [Example 810S]”: in the data set with total IgM and total IgG, the “total IgM and IgG levels” value is reported as “remained relatively constant”. In addition, in data set [1] (approximate, 810 S and its diafiltration fractions (Example 30)), the half-maximal inhibitory concentration (IC50) amounted to 0.005 µg/mL. The same compound showed an IC50 (FIG. 24) in data set [1] of 0.5 µg/mL. Also, the “IgM and IgG ASC levels, % of initial levels” value in data set [2] (1 week after day 30) was “about 62%”; in data set [2] (by the second treatment with 810S), 20-40%; in data set [2] (day 30, 2 weeks after 810S treatment was terminated), “about 38%”. The “IgM and IgG ASCs, % of starting levels” value in data set [2] (after the sixth treatment) was 3-6%. Further, the “IgM and IgG ASCs, % initial levels” value in data set [2] (by the fourth treatment) is “about 10%”. Also, the “IgG XNA levels, % of baseline values” in data set [3] (setting [5]) is on record as 1-9%; in data set [3] (by day 30), 20-33%; in data set [3] (day 184, 2 810S-treated baboons), 30-38%. Also, the “IgM XNA levels, % of baseline values” in data set [3] (setting [5]) is on record as 1-3%; in data set [3] (by day 30), 8-18%; in data set [3] (day 184, the other 2 baboons), 24-39%. Also, in data set [3] (50 mg/kg IV, after the 1st treatment, all 3 baboons), the “circulating IgG and IgM XNA levels, % of initial levels” value was 1-13%. The “IgM XNA levels, % of baseline levels” value in data set [3] (day 184, 3rd baboon) was found to be 60%. Also, the “IgG XNA levels” value in data set [3] (day 184, one (3rd) baboon) was “returned to baseline”. The “810S still in baboon serum” value in data set [4] is given as “not still in circulation”.

The record behind these values is patent US20040141944A1, “Inhibition of xenoreactive antibodies” (priority 1998, published 2004).
